Laboratory results from the CheMixHub viscosity set.

Assay: xn = mol fraction of the nth substance listed

CC1CCCCC1 + CC(C)CC(C)(C)C
viscosity [mPa·s], 101 kPa
Conditions | 298.15 K | 303.15 K | 308.15 K
x1 = 0.1032 | – | 0.462 | –
x1 = 0.105 | – | 0.466 | 0.438
x1 = 0.201 | – | 0.478 | –
x1 = 0.221 | – | 0.4798 | –
x1 = 0.3024 | 0.522 | 0.492 | 0.462
x1 = 0.399 | – | 0.5062 | –
x1 = 0.4039 | 0.539 | 0.508 | 0.476
x1 = 0.4974 | – | 0.524 | –
x1 = 0.4998 | 0.556 | 0.523 | 0.491
x1 = 0.5998 | – | 0.5431 | –
x1 = 0.6064 | 0.577 | 0.543 | 0.509
x1 = 0.6991 | 0.597 | 0.562 | 0.526
x1 = 0.7018 | – | 0.5656 | –
x1 = 0.8004 | 0.62 | 0.583 | 0.546
x1 = 0.8012 | – | 0.5892 | –
x1 = 0.8991 | – | 0.6154 | –
x1 = 0.9007 | 0.648 | 0.608 | 0.568

CC1CCCCC1 + CCCCCCO
303.15 K, 101.33 kPa
Conditions | viscosity [mPa·s]
x1 = 0.1015 | 3.051
x1 = 0.2596 | 2.193
x1 = 0.4197 | 1.536
x1 = 0.582 | 1.11
x1 = 0.7447 | 0.852
x1 = 0.8989 | 0.693
x2 = 0.1112 | 0.7521
x2 = 0.1986 | 0.8469
x2 = 0.3135 | 1.009
x2 = 0.4018 | 1.148
x2 = 0.4981 | 1.351
x2 = 0.5978 | 1.595
x2 = 0.7018 | 1.908
x2 = 0.8123 | 2.408
x2 = 0.8923 | 2.874

CCNC(C)=O + O
298.16 K, 101 kPa
Conditions | viscosity [mPa·s]
x2 = 0.0826 | 6.11
x2 = 0.1593 | 6.33
x2 = 0.2575 | 6.67
x2 = 0.3475 | 6.96
x2 = 0.427 | 7.14
x2 = 0.4728 | 7.18
x2 = 0.5438 | 7.12
x2 = 0.585 | 6.98
x2 = 0.7047 | 6.14
x2 = 0.7459 | 5.72

CC(=O)[O-].CCCC[NH2+]CCO + CCCCn1cc[n+](C)c1.COP(=O)([O-])OC
viscosity [mPa·s], 101 kPa
Conditions | x1 = 0.1014 | x1 = 0.2979 | x1 = 0.4067 | x1 = 0.4989 | x1 = 0.8011 | x1 = 0.8913
293.15 K | 730.5 | – | – | 502.5 | 741.5 | –
298.15 K | – | 392.5 | 359.5 | – | – | 632.5

COC(=O)c1ccccc1O + CS(C)=O
303.15 K, 101 kPa
Conditions | viscosity [mPa·s]
x1 = 0.1215 | 1.932
x1 = 0.1918 | 2.13
x1 = 0.2697 | 2.186
x1 = 0.3567 | 2.283
x1 = 0.5628 | 2.356
x1 = 0.6882 | 2.38
x1 = 0.8323 | 2.403

CCC(C)CO (stereo unspecified) + COc1ccccc1
viscosity [mPa·s], 101.33 kPa
Conditions | x2 = 0.1005 | x2 = 0.2004 | x2 = 0.3003 | x2 = 0.4012 | x2 = 0.5001 | x2 = 0.6005 | x2 = 0.6996 | x2 = 0.8001 | x2 = 0.9003
303.15 K | 2.761 | 2.126 | 1.665 | 1.347 | 1.149 | 1.032 | 0.968 | 0.932 | 0.912
313.15 K | 2.026 | 1.601 | 1.296 | 1.084 | 0.952 | 0.868 | 0.824 | 0.803 | 0.794
323.15 K | 1.552 | 1.246 | 1.022 | 0.872 | 0.784 | 0.739 | 0.718 | 0.707 | 0.698

CC1CCCCC1 + CCCCCCC
viscosity [mPa·s]
Conditions | 293.15 K | 298.15 K | 303.15 K | 308.15 K | 323.15 K
100 kPa, x1 = 0.125 | – | – | 0.389 | – | 0.317
100 kPa, x1 = 0.25 | – | – | 0.411 | – | 0.335
100 kPa, x1 = 0.375 | – | – | 0.436 | – | 0.354
100 kPa, x1 = 0.5 | – | – | 0.465 | – | 0.375
100 kPa, x1 = 0.625 | – | – | 0.498 | – | 0.4
100 kPa, x1 = 0.75 | – | – | 0.538 | – | 0.43
100 kPa, x1 = 0.875 | – | – | 0.585 | – | 0.466
101 kPa, x1 = 0.0405 | 0.4128 | 0.3963 | 0.368 | – | –
101 kPa, x1 = 0.1021 | – | 0.411 | 0.391 | 0.371 | –
101 kPa, x1 = 0.1996 | 0.4451 | 0.4235 | 0.4003 | – | –
101 kPa, x1 = 0.2033 | – | 0.432 | 0.41 | 0.389 | –
101 kPa, x1 = 0.281 | 0.4637 | 0.4402 | 0.4162 | – | –
101 kPa, x1 = 0.3044 | – | 0.451 | 0.427 | 0.403 | –
101 kPa, x1 = 0.3593 | 0.4826 | 0.4568 | 0.4317 | – | –
101 kPa, x1 = 0.4036 | – | 0.473 | 0.449 | 0.422 | –
101 kPa, x1 = 0.4393 | 0.5042 | 0.474 | 0.4476 | – | –
101 kPa, x1 = 0.5029 | – | 0.497 | 0.47 | 0.443 | –
101 kPa, x1 = 0.6003 | 0.5514 | 0.5153 | 0.4887 | – | –
101 kPa, x1 = 0.6033 | – | 0.526 | 0.496 | 0.467 | –
101 kPa, x1 = 0.6793 | 0.5802 | 0.5399 | 0.512 | – | –
101 kPa, x1 = 0.7038 | – | 0.556 | 0.524 | 0.492 | –
101 kPa, x1 = 0.76 | 0.6141 | 0.571 | 0.5395 | – | –
101 kPa, x1 = 0.8022 | – | 0.591 | 0.557 | 0.522 | –
101 kPa, x1 = 0.84 | 0.6483 | 0.6042 | 0.5687 | – | –
101 kPa, x1 = 0.9006 | – | 0.625 | 0.589 | 0.553 | –
101 kPa, x1 = 0.9074 | 0.6821 | 0.6347 | 0.5964 | – | –

CCOC(=O)[C@@H](O)[C@H](O)C(=O)OCC + CCCO
viscosity [mPa·s], 101 kPa
Conditions | x1 = 0.1 | x1 = 0.2 | x1 = 0.2999 | x1 = 0.3999 | x1 = 0.5001 | x1 = 0.5999 | x1 = 0.7 | x1 = 0.7996 | x1 = 0.9
293.15 K | 3.256 | 5.15 | 8.204 | 13.19 | 21 | 32.75 | 52.88 | 84.67 | 135.1
298.15 K | 2.832 | 4.359 | 6.759 | 10.53 | 16.09 | 24.37 | 37.73 | 57.79 | 88.2
303.15 K | 2.467 | 3.7 | 5.586 | 8.415 | 12.64 | 18.48 | 27.67 | 40.91 | 60.18
308.15 K | 2.164 | 3.17 | 4.671 | 6.886 | 10.06 | 14.35 | 20.86 | 29.93 | 42.64
313.15 K | 1.913 | 2.731 | 3.92 | 5.661 | 8.093 | 11.3 | 16.05 | 22.45 | 31.15
318.15 K | 1.694 | 2.385 | 3.38 | 4.782 | 6.694 | 9.164 | 12.71 | 17.37 | 23.52
323.15 K | 1.52 | 2.108 | 2.94 | 4.092 | 5.623 | 7.561 | 10.28 | 13.77 | 18.27
